Reference: ChEMBL document CHEMBL2163199, “Moderate chemical modifications of WAY-100635 improve the selectivity for 5-HT1A versus D4 receptors” (Bioorg Med Chem Lett, 2012)
Active and inactive are the calls of the source. No cut-off for these calls is given here.

Columns and labels:
D(4) dopamine receptor [1] = target: T1, D(4) dopamine receptor (Homo sapiens, UniProt P21917); experiment: biochemical
T1 sequence (P21917 whole entry): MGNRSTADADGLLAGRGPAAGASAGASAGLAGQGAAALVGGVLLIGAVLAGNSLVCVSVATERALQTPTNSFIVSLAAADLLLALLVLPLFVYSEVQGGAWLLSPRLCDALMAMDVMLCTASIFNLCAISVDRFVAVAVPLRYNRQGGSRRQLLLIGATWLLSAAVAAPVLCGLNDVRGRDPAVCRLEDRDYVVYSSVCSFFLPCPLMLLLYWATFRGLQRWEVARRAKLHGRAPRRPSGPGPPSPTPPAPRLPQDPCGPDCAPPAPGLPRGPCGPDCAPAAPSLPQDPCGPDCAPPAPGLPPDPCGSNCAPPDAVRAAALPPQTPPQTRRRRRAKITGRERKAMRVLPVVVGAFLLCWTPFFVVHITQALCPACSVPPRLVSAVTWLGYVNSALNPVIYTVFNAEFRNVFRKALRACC
Description: Displacement of [3H]-YM-09151-2 from human cloned D4 receptor expressed in Sf9 cells after 60 mins by liquid scintillation counting

[2] = buffer, pH 7.4
Description: Lipophilicity, log K of the compound in 50 mM PBS at pH 7.4-10 to 60% methanol mixture by HPLC method

[3] = target: T2, 5-hydroxytryptamine receptor 1A (Homo sapiens, UniProt P08908); experiment: biochemical
T2 sequence (P08908 whole entry): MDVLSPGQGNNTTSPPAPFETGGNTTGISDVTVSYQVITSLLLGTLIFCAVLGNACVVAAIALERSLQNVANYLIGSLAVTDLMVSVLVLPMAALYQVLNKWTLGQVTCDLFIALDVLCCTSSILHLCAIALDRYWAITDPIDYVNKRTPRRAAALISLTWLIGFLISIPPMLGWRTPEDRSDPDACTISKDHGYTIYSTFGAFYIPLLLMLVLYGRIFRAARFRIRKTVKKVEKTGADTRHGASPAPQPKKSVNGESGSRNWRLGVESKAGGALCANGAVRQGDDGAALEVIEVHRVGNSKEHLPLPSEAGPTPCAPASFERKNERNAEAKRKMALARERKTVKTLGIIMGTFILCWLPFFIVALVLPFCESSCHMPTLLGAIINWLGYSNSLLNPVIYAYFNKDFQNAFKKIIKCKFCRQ
Description: Displacement of [3H]8-OH-DPAT from human cloned 5-HT1A receptor expressed in CHO cells after 60 mins by liquid scintillation counting

[4] = target: 5-hydroxytryptamine receptor 5A (Homo sapiens) (UniProt P47898); experiment: Binding affinity to 5HT5A receptor at 10 uM by radioligand binding assay
[5] = target: Beta-2 adrenergic receptor (Homo sapiens) (UniProt P07550); experiment: Binding affinity to adrenergic beta2 receptor at 10 uM by radioligand binding assay
[6] = target: 5-hydroxytryptamine receptor 2B (Homo sapiens, UniProt P41595); experiment: Binding affinity to 5HT2B receptor by radioligand binding assay; conditions: read-out: Ki(app)
[7] = target: Histamine H3 receptor (Homo sapiens) (UniProt Q9Y5N1); experiment: Binding affinity to histamine H3 receptor at 10 uM by radioligand binding assay
[8] = target: T3, 5-hydroxytryptamine receptor 1A (Rattus norvegicus) (UniProt P19327); experiment: Antagonist activity of 5-HT1A receptor in Wistar rat dorsal raphe serotonergic neuron assessed as reversal of 8-OH-DPAT-induced decrease in firing rate at 100 nM by electrophysiological test; type: functional; parameters: scale not given: the % may be the effect or the level left
T3 sequence (whole entry): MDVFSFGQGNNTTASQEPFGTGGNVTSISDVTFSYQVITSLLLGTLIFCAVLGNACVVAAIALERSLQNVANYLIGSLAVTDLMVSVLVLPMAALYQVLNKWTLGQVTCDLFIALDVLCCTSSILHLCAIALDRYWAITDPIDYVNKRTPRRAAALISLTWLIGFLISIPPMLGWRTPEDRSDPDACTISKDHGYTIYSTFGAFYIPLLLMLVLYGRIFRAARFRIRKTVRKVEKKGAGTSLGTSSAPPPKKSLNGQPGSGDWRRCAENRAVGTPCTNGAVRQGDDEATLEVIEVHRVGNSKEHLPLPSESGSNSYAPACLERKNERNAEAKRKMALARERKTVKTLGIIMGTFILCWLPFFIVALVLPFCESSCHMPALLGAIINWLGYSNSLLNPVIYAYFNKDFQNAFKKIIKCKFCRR

[9] = target: Sigma non-opioid intracellular receptor 1 (Homo sapiens) (UniProt Q99720); experiment: Binding affinity to sigma 1 receptor at 10 uM by radioligand binding assay
[10] = target: D(2) dopamine receptor (Homo sapiens) (UniProt P14416); experiment: Binding affinity to dopamine D2 receptor at 10 uM by radioligand binding assay
D(2) dopamine receptor (Homo sapiens), sequence (P14416 whole entry): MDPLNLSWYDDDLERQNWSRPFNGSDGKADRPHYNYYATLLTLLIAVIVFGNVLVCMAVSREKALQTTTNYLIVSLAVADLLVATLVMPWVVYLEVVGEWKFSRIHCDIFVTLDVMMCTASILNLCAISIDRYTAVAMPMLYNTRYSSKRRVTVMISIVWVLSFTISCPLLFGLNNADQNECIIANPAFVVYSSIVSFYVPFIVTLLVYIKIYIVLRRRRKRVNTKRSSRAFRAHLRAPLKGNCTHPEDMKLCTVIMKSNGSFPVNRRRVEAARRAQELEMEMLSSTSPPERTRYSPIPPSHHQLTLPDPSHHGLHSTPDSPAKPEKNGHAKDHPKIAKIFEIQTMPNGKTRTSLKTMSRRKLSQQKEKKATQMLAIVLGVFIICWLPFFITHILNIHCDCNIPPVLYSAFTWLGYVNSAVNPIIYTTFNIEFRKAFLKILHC

[11] = target: D(3) dopamine receptor (Homo sapiens) (UniProt P35462); experiment: Binding affinity to dopamine D3 receptor at 10 uM by radioligand binding assay
[12] = target: T2, 5-hydroxytryptamine receptor 1A
Description: Binding affinity to 5HT1A receptor by radioligand binding assay

[13] = target: Muscarinic acetylcholine receptor M3 (Homo sapiens) (UniProt P20309); experiment: Binding affinity to muscarinic M3 receptor at 10 uM by radioligand binding assay
[14] = target: Muscarinic acetylcholine receptor M4 (Homo sapiens) (UniProt P08173); experiment: Binding affinity to muscarinic M4 receptor at 10 uM by radioligand binding assay
Muscarinic acetylcholine receptor M4 (Homo sapiens), sequence (P08173 whole entry): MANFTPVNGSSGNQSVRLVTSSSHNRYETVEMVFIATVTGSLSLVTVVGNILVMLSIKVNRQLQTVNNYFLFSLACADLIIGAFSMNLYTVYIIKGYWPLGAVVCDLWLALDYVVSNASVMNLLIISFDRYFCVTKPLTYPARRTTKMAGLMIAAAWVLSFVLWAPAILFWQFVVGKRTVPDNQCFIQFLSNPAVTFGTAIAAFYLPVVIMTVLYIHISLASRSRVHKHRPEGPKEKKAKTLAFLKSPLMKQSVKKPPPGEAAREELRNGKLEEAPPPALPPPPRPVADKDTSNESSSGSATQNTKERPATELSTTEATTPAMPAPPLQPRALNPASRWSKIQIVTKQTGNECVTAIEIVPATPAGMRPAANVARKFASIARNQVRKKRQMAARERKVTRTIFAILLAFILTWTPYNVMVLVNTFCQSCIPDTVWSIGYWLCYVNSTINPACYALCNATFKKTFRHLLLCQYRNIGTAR

[15] = target: Alpha-2B adrenergic receptor (Homo sapiens) (UniProt P18089); experiment: Binding affinity to adrenergic alpha2B receptor at 10 uM by radioligand binding assay
[16] = target: 5-hydroxytryptamine receptor 7 (Homo sapiens, UniProt P34969)
5-hydroxytryptamine receptor 7, sequence (P34969 whole entry): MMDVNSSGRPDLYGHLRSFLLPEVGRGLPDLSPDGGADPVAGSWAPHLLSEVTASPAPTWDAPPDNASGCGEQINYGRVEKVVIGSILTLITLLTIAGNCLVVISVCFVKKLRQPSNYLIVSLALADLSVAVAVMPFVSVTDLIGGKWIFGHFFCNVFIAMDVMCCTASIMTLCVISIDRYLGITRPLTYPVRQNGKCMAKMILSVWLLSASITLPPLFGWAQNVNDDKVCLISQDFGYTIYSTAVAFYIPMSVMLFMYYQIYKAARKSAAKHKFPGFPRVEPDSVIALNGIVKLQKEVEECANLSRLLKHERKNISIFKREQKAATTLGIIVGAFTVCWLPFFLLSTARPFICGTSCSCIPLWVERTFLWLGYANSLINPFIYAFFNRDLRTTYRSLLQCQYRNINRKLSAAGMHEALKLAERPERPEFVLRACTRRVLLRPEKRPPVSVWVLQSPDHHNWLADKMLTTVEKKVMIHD
Description: Binding affinity to 5HT7 receptor by radioligand binding assay

[17] = target: Beta-1 adrenergic receptor (Homo sapiens) (UniProt P08588); experiment: Binding affinity to adrenergic beta1 receptor at 10 uM by radioligand binding assay
Beta-1 adrenergic receptor (Homo sapiens), sequence (P08588 whole entry, looked up): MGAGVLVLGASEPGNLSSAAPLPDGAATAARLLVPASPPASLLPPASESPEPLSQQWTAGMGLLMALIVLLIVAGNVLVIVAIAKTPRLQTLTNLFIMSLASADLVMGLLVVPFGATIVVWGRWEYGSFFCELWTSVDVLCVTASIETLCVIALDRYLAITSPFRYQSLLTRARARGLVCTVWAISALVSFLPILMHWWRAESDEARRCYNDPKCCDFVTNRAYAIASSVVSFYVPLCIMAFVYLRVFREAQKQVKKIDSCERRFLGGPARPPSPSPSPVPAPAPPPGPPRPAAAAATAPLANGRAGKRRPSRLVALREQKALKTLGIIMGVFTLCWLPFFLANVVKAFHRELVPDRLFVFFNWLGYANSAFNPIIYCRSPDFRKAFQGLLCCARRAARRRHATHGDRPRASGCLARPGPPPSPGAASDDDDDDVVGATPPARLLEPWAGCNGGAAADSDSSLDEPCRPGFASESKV

[18] = Binding affinity to rat benzodiazepine binding site at 10 uM by radioligand binding assay
D(4) dopamine receptor [19] = target: T1, D(4) dopamine receptor
Description: Binding affinity to dopamine D4 receptor by radioligand binding assay

[20] = target: 5-hydroxytryptamine receptor 1E (Homo sapiens) (UniProt P28566); experiment: Binding affinity to 5HT1E receptor at 10 uM by radioligand binding assay
5-hydroxytryptamine receptor 1E (Homo sapiens), sequence (P28566 whole entry): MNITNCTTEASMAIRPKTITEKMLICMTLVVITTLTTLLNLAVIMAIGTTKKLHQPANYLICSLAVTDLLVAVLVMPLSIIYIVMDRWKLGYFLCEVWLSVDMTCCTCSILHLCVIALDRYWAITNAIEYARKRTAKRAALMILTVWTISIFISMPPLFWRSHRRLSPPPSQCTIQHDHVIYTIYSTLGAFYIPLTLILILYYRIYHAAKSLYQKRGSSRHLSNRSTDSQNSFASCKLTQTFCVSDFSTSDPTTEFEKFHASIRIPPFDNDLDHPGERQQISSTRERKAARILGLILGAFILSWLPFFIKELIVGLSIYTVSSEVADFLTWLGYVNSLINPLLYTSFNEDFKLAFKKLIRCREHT

[21] = target: 5-hydroxytryptamine receptor 2A (Homo sapiens, UniProt P28223); experiment: Binding affinity to 5HT2A receptor by radioligand binding assay; conditions: read-out: Ki(app)
5-hydroxytryptamine receptor 2A, sequence (P28223 whole entry): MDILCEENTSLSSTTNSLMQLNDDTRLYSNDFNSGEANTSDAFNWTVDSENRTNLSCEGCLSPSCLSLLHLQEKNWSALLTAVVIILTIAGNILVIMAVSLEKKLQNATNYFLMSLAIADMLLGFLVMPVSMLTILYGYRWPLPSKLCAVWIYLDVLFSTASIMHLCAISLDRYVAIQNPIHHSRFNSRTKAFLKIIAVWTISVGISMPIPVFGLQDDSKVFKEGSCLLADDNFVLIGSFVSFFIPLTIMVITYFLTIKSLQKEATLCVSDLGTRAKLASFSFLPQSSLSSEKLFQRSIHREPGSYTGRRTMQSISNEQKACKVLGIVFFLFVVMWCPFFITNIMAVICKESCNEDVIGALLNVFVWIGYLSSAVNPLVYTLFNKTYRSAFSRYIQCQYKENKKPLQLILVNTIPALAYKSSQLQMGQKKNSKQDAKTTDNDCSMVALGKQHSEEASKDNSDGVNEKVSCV

[22] = target: Sodium-dependent dopamine transporter (Homo sapiens) (UniProt Q01959); experiment: Binding affinity to DAT at 10 uM by radioligand binding assay
Sodium-dependent dopamine transporter (Homo sapiens), sequence (Q01959 whole entry): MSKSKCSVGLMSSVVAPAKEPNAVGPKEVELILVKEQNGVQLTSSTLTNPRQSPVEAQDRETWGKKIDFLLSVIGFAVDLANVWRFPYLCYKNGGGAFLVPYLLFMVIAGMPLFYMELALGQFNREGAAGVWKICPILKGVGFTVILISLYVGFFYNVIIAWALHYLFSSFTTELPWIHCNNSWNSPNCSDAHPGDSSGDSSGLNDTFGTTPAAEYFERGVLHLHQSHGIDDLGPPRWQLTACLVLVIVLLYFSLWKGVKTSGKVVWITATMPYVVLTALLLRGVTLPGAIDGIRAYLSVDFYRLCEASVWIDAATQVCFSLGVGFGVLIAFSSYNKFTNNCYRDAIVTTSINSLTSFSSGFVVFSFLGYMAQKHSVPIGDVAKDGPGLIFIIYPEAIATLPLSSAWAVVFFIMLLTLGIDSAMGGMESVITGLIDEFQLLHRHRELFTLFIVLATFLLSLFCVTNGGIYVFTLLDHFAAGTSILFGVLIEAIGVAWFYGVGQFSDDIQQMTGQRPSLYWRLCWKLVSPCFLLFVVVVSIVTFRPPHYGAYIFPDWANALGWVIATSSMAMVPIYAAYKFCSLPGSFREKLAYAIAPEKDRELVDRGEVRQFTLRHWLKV

[23] = target: 5-hydroxytryptamine receptor 2C (Homo sapiens) (UniProt P28335); experiment: Binding affinity to 5HT2C receptor at 10 uM by radioligand binding assay
[24] = target: T3, 5-hydroxytryptamine receptor 1A (Rattus norvegicus); experiment: Agonist activity of 5-HT1A receptor in Wistar rat dorsal raphe serotonergic neuron assessed as inhibition of firing at 1 nM to 1 uM by electrophysiological test; type: functional
[25] = target: 5-hydroxytryptamine receptor 1B (Homo sapiens) (UniProt P28222); experiment: Binding affinity to 5HT1B receptor at 10 uM by radioligand binding assay
[26] = target: Alpha-1B adrenergic receptor (Homo sapiens, UniProt P35368)
Description: Binding affinity to adrenergic alpha1B receptor by radioligand binding assay

[27] = target: Muscarinic acetylcholine receptor M2 (Homo sapiens) (UniProt P08172); experiment: Binding affinity to muscarinic M2 receptor at 10 uM by radioligand binding assay
[28] = target: 5-hydroxytryptamine receptor 6 (Homo sapiens) (UniProt P50406); experiment: Binding affinity to 5HT6 receptor at 10 uM by radioligand binding assay
[29] = target: D(1B) dopamine receptor (Homo sapiens) (UniProt P21918); experiment: Binding affinity to dopamine D5 receptor at 10 uM by radioligand binding assay
[30] = target: Beta-3 adrenergic receptor (Homo sapiens) (UniProt P13945); experiment: Binding affinity to adrenergic beta3 receptor at 10 uM by radioligand binding assay
[31] = target: D(1A) dopamine receptor (Homo sapiens) (UniProt P21728); experiment: Binding affinity to dopamine D1 receptor at 10 uM by radioligand binding assay
[32] = target: Muscarinic acetylcholine receptor M1 (Homo sapiens) (UniProt P11229); experiment: Binding affinity to muscarinic M1 receptor at 10 uM by radioligand binding assay
Muscarinic acetylcholine receptor M1 (Homo sapiens), sequence (P11229 whole entry): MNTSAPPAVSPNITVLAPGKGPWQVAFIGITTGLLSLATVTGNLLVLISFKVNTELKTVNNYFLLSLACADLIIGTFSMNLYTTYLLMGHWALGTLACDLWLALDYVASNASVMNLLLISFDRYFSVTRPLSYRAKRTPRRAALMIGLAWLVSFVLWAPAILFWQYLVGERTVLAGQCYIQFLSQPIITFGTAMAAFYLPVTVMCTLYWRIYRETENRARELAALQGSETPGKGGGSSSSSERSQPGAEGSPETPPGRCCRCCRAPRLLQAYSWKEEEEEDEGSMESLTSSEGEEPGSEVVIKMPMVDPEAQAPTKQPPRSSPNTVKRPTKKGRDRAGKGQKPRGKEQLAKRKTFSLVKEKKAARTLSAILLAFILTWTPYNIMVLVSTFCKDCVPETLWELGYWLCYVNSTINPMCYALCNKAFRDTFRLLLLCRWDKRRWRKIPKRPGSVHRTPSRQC

[33] = target: Muscarinic acetylcholine receptor M5 (Homo sapiens) (UniProt P08912); experiment: Binding affinity to muscarinic M5 receptor at 10 uM by radioligand binding assay
Muscarinic acetylcholine receptor M5 (Homo sapiens), sequence (P08912 whole entry): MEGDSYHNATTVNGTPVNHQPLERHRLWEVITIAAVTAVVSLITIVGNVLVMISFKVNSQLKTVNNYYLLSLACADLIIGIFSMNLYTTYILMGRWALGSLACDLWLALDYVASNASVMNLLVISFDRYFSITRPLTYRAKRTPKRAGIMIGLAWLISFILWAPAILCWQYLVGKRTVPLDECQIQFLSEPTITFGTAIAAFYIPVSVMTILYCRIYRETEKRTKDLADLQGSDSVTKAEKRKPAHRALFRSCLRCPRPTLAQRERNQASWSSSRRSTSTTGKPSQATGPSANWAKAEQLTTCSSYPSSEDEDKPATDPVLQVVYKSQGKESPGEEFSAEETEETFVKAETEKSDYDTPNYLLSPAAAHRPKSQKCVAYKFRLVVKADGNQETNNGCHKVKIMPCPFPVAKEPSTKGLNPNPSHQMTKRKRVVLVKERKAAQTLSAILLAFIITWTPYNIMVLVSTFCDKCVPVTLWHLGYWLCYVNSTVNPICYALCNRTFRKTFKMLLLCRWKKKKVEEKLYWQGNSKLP

[34] = Binding affinity to GABAA receptor at 10 uM by radioligand binding assay
[35] = target: Alpha-2A adrenergic receptor (Homo sapiens) (UniProt P08913); experiment: Binding affinity to adrenergic alpha2A receptor at 10 uM by radioligand binding assay
[36] = target: Alpha-1A adrenergic receptor (Homo sapiens, UniProt P35348); experiment: Binding affinity to adrenergic alpha1A receptor by radioligand binding assay; conditions: read-out: Ki(app)
Alpha-1A adrenergic receptor, sequence (P35348 whole entry): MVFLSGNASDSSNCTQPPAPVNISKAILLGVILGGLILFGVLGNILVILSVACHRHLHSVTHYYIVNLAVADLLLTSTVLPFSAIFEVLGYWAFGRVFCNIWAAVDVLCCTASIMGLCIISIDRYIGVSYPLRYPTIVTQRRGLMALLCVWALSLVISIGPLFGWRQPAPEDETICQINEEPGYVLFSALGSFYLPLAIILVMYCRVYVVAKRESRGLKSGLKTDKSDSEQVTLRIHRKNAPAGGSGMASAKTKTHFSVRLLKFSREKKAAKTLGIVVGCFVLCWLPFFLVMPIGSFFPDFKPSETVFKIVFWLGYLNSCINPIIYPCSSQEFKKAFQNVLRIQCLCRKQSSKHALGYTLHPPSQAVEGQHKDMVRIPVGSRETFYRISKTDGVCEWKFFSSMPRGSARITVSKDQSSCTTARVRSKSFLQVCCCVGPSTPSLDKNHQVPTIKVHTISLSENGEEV

[37] = target: 5-hydroxytryptamine receptor 1D (Homo sapiens) (UniProt P28221); experiment: Binding affinity to 5HT1D receptor at 10 uM by radioligand binding assay
[38] = target: 5-hydroxytryptamine receptor 3A (Homo sapiens) (UniProt P46098); experiment: Binding affinity to 5HT3 receptor at 10 uM by radioligand binding assay
[39] = Binding affinity to sigma 2 receptor at 10 uM by radioligand binding assay

In the case of `O=C(c1ccc2ccccc2c1)N(CCN1CC=C(c2ccccc2)CC1)c1ccccn1`, the Ki (D(4) dopamine receptor [1]) is reported as 291 nM, the “log K” value [2] is reported as 4.36 and the Ki [3] is reported as 8.36 nM.

For `O=C(c1cccc2ccccc12)N(CCN1CCN(c2ccccc2)CC1)c1ccccn1`, the Ki (D(4) dopamine receptor [1]) was 550 nM, the “log K” value [2] was 3.27 and the Ki [3] was 35.8 nM.

For `COc1ccccc1N1CCN(CCN(C(=O)c2ccc3ccccc3c2)c2ccccn2)CC1`, the Ki (D(4) dopamine receptor [1]) was 184 nM, the “log K” value [2] was 3.57 and the Ki [3] was 1.61 nM.

With `O=C(c1cnc2ccccc2n1)N(CCN1CCN(c2ccccc2)CC1)c1ccccn1` the Ki (D(4) dopamine receptor [1]) was 56.8 nM, the “log K” value [2] was 3.06 and the Ki [3] was 36.2 nM.

For `O=C(C1CCCCC1)N(CCN1CC=C(c2ccccc2)CC1)c1ccccn1`, the inhibition [4] was under 50%, the inhibition [5] was under 50% and the Ki [6] was 105 nM. It also gave an inhibition [7] of under 50%, an Activity [8] of 44% and a Ki (D(4) dopamine receptor [1]) of 385 nM. It also gave an inhibition [9] of over 50%, an inhibition [10] of over 50% and an inhibition [11] of over 50%. It also gave a Ki [12] of 0.69 nM, an inhibition [13] of under 50% and an inhibition [14] of under 50%. The inhibition [15] was under 50%, the Ki [16] was 60 nM and the inhibition [17] was under 50%. The “log K” value [2] was 3.84, the inhibition [18] was under 50% and the Ki (D(4) dopamine receptor [19]) was 55 nM. The inhibition [20] was under 50%, the Ki [21] was 54 nM and the inhibition [22] was under 50%. For the same molecule, the inhibition [23] was under 50%, the inhibition [24] was “inactive” and the inhibition [25] was under 50%. For the same molecule, the Ki [26] was 296 nM, the inhibition [27] was under 50% and the inhibition [28] was under 50%. For the same molecule, the inhibition [29] was under 50%, the inhibition [30] was under 50% and the Ki [3] was 0.51 nM. It also gave an inhibition [31] of under 50%, an inhibition [32] of under 50% and an inhibition [33] of under 50%. For the same molecule, the inhibition [34] was under 50%, the inhibition [35] was under 50% and the Ki [36] was 39 nM. The inhibition [37] was under 50%, the inhibition [38] was under 50% and the inhibition [39] was over 50%.

For `COc1ccccc1N1CCN(CCN(C(=O)c2cnc3ccccc3n2)c2ccccn2)CC1`, the Ki (D(4) dopamine receptor [1]) was 15 nM, the “log K” value [2] was 2.61 and the Ki [3] was 2.48 nM.

With `O=C(c1ccc2ccccc2c1)N(CCN1CCN(c2ccccc2)CC1)c1ccccn1` the Ki (D(4) dopamine receptor [1]) was 807 nM, the “log K” value [2] was 3.48 and the Ki [3] was 16.3 nM.

For `O=C(c1cccc2ccccc12)N(CCN1CC=C(c2ccccc2)CC1)c1ccccn1`, the Ki (D(4) dopamine receptor [1]) was 252 nM, the “log K” value [2] was 4.07 and the Ki [3] was 14 nM.

With `COc1ccccc1N1CCN(CCN(C(=O)c2cccc3ccccc23)c2ccccn2)CC1` the Ki (D(4) dopamine receptor [1]) was 69 nM, the “log K” value [2] was 3.26 and the Ki [3] was 1.89 nM.

With `O=C(c1cnc2ccccc2n1)N(CCN1CC=C(c2ccccc2)CC1)c1ccccn1` the Ki (D(4) dopamine receptor [1]) was 35 nM, the “log K” value [2] was 3.33 and the Ki [3] was 8.27 nM.

Work on `O=C(C1CCCCC1)N(CCN1CCN(c2ccccc2)CC1)c1ccccn1` yielded an inhibition [4] of under 50%, an inhibition [5] of under 50% and a Ki [6] of 327 nM. The inhibition [7] was under 50%, the Activity [8] was 44% and the Ki (D(4) dopamine receptor [1]) was 946 nM. For the same molecule, the inhibition [9] was over 50%, the inhibition [10] was over 50% and the inhibition [11] was over 50%. For the same molecule, the Ki [12] was 1.85 nM, the inhibition [13] was under 50% and the inhibition [14] was under 50%. For the same molecule, the inhibition [15] was under 50%, the Ki [16] was 198 nM and the inhibition [17] was under 50%. For the same molecule, the “log K” value [2] was 2.68, the inhibition [18] was under 50% and the Ki (D(4) dopamine receptor [19]) was 246 nM. It also gave an inhibition [20] of under 50%, a Ki [21] of 180 nM and an inhibition [22] of under 50%. The inhibition [23] was under 50%, the inhibition [24] was “inactive” and the inhibition [25] was under 50%. For the same molecule, the Ki [26] was 1050 nM, the inhibition [27] was under 50% and the inhibition [28] was under 50%. The inhibition [29] was under 50%, the inhibition [30] was under 50% and the Ki [3] was 1.21 nM. The inhibition [31] was under 50%, the inhibition [32] was under 50% and the inhibition [33] was under 50%. For the same molecule, the inhibition [34] was under 50%, the inhibition [35] was under 50% and the Ki [36] was 584 nM. It also gave an inhibition [37] of under 50%, an inhibition [38] of under 50% and an inhibition [39] of over 50%.
